Laboratory results published in patent US8716302B2, “Compounds for inducing cellular apoptosis” (Queen Mary & Westfield College, priority 2009, dated 2014).
Values joined by “and” are separate entries in the source; they are usually repeats but may differ in a detail not shown here. Equal entries are not always repeated. Where two headings read alike, the source gives them in different places.

Key:
[1] = tested on: DoHH2 (lymphoma) cell line; assay: DiOC6(3) flow evaluation of cell viability and apoptosis, DoHH2 (lymphoma) cell line; format: cell-based, human; settings: for Percentage Cell Viability: DoHH2 cells, 50 μM; for cytotoxicity at 50 µM / viability at 50 µM: Homo sapiens, DOHH-2, DoHH2 cells
Protocol: DiOC6(3) flow evaluation of cell viability and levels of apoptosis was carried out at 10 and 50 μm concentrations. For each entry in FIG. 1, % apoptosis is on the left and % viable is on the right.
Measurement of Mitochondrial Membrane Potential depolarisation and mitochondrial permeability transition (MPT). Cells were incubated for 20 minutes at 37° C. in the dark with the cationic lipophillic (amphipathic) probe 3,3′-dihexyloxacarbocyanine iodide, DiOC6(3) (80 nM), then counter stained for 10 minutes with propidium iodide (20 μg/ml). DiOC6(3) is sequestered within the mitochondrial matrix due to the inner membrane potential (Δψm), according to the Nernst equation, dissipation leading to a reduction in mitochondrial retention and decreased cellular DiOC6(3) fluorescence. Collapse of Δψm was prevented by incubating cells for 30 minutes with 50 μM bongkrekic acid. Events with increased propidium iodide fluorescence were subtracted, by gating, from the DiOC6(3) histograms to eliminate dead cells, with loss of plasma membrane integrity. Dose-response curves used the calculated proportion of DiOC6(3)low, cells as the dependent variable on the ordinate. To measure MPT directly, cells were incubated with 1 μM calcein AM for 30 minutes, followed by 1 mM […] cobalt. Cobalt quenches calcein fluorescence, but cannot traverse an intact inner mitochondrial membrane to enter the mitochondrial matrix, to which calcein equilibrates. Opening of the PTPC allows cobalt to enter, reducing calcein fluorescence.
The Lymphoma cell line (DoHH2) was treated with PK11195 and various compounds of the invention at doses of 10 and 50 μmol concentrations. Levels of cell viability and apoptosis were measured by DiOC6 flow evaluation. DiOC6 is a fluorescent dye which acts as a surrogate marker of mitochondrial depolarisation. Uptake of DiOC6 and consequent fluorescence is a measure of opening of the permeability transition pore complex (PTPC).
The following tables set out % viability and % apoptosis results seen for treatment of DoHH2 cells with certain compounds of the invention at a dosage of 50 μM, in comparison with untreated cells. The assay procedure used was as described above in respect of “Treatment of DoHH 2 (Lymphoma) Cell Line”.

[2] = tested on: DoHH2 cells; assay: Superoxide purging with MnTBAP, apoptosis in DoHH2 cells; format: cell-based, human; settings: with and without ROS scavenger MnTBAP
Protocol: For each entry in FIG. 2, DAPI viable is on the left and DAPI non viable is on the right.
O^2-• was detected by incubating cells for 15 minutes in 5 μM dihydroethidium, which is oxidized to ethidium. To test the effect of O^2-• […] on O^2-• generation, cells were treated with 100 μM MnTBAP for 45 minutes. Hydrogen peroxide was detected by loading cells for 30 minutes with 5 μM CM-H2DCFDA, and its formation inhibited by preincubation with 500 U/ml catalase for 30 minutes. Dose-response curves for CM-H2DCFDA used the calculated proportion of CM-H2DCFDAhigh cells as the dependent variable.
DoHH2 cells were exposed to AAW-001, AAW-0014 and PK11195 in the presence and absence of the mitochondrial reactive oxygen species (ROS) scavenger MnTBAP.

[3] = tested on: human lymphoma DoHH2 cell line xenograft; assay: DoHH2 xenograft NOD/SCID mice; format: in vivo; settings: for mice alive at 10 weeks: cohorts of ten mice
Protocol: NOD/SCID mice xenografted with the human lymphoma DoHH2 cell line were treated two weeks post inoculation with the human B cell lymphoma cell line DoHH2. There were three cohorts of ten mice. For two cohorts, treatment consisted of 50 microgram intraperitoneal (IP) doses twice weekly for three weeks of PK11195 or AAW-0014, respectively. The third cohort was treated with 200 microlitres of saline twice weekly over a 3 week period. The mice were then observed for up to six weeks. All of the saline treated mice were dead due to disease at 10 weeks. […] All of the AAW-0014 treated mice were alive at 10 weeks showing less than 20% splenic involvement, including 2 mice with no detectable disease.

[4] = average of repeats, read-out: Percentage Cell Apoptosis, Averages
[5] = average of repeats, read-out: Percentage Cell Viability, Averages
[6] = individual repeats, read-out: Percentage Cell Apoptosis
[7] = 50 microgram IP twice weekly for three weeks
[8] = at 10 weeks, 50 microgram IP twice weekly for three weeks
[9] = individual repeats, read-out: Percentage Cell Viability

With `CC(C)C(=O)Nc1cc2c(c(-c3ccccc3Cl)c1)CCN(C(=O)C(F)(F)F)C2` [CO-AAW0001, N-[5-(2-chloro-phenyl)-2-(2,2,2-trifluoro-acetyl)-1,2,3,4-tetrahydro-isoquinolin-7-yl]-isobutyramide] the “Percentage Cell Viability” value ([1]; individual repeats, listed as 1, 50 µM) was 73.8% and 67.7% and 47.9% and 62.5% and 48.0% and 52.8% and 52.9% and 48.5% and 68.4% and 65.4%, the cytotoxicity at 50 µM [1, 4] was 52.8% and the viability at 50 µM [1, 5] was 59.7%.

For `CC(C)C(=O)Nc1cc2ccccc2c(-c2ccccc2Cl)n1` [CO-AAW0007], the “Percentage Cell Viability” value ([1]; individual repeats, listed as 7, 50 µM) was 63.9% and 88.2%, the cytotoxicity at 50 µM [1, 4] was 26.1% and the viability at 50 µM [1, 5] was 76.1%.

In the case of `CCC(C)C(=O)Nc1cc2ccccc2c(-c2ccccc2Cl)n1` (centres unmarked) [CO-AAW0008], the “Percentage Cell Viability” value ([1]; individual repeats, listed as 8, 50 µM) is reported as 54.1% and 81.7%, the cytotoxicity at 50 µM [1, 4] is reported as 39.2% and the viability at 50 µM [1, 5] is reported as 67.9%. It also gave a cytotoxicity at 50 µM [1, 6] of 48.8%.

In the case of `CC(C)NC(=O)c1cc2ccccc2c(-c2ccccc2Cl)n1` [CO-AAW0009], the “Percentage Cell Viability” value ([1]; individual repeats, listed as 9, 50 µM) is reported as 48.8% and 90.5%, the cytotoxicity at 50 µM [1, 4] is reported as 32.4% and the viability at 50 µM [1, 5] is reported as 69.9%.

In the case of `CCCCC(=O)Nc1nc2c(c(-c3ccccc3Cl)n1)CN(Cc1ccccc1)CC2` [CO-AAW00014, pentanoic acid [6-benzyl-4-(2-chloro-phenyl)-5,6,7,8-[4,3-d]pyrimidin-2-yl]-amide], the “Percentage Cell Viability” value ([1]; individual repeats, listed as 14, 50 µM) is reported as 68.8% and 42.3% and 39.4% and 65.8% and 51.8% and 54.3% and 49.6%, the cytotoxicity at 50 µM [1, 4] is reported as 65.5% and the viability at 50 µM [1, 5] is reported as 53.1%. The “ability to induce apoptosis in the presence of MnTBAP” value [2] was “inhibited by MnTBAP”, the drug related toxicities [3, 7] was “No major drug related toxicities were observed” and the splenic involvement [3, 8] was “less than 20%”. The “mice with no detectable disease” value ([3]; at 10 weeks, of ten mice) was 2 and the “mice alive at 10 weeks” value [3, 7] was “All”.

With `O=C(Nc1nc2c(c(-c3ccccc3Cl)n1)CN(Cc1ccccc1)CC2)c1cccc(Cl)c1Cl` [CO-AAW00016, N-[6-benzyl-4-(2-chlorophenyl)-5H,6H,7H,8H-pyrido[4,3-d]pyrimidin-2-yl]-2,3-dichlorobenzamide] the “Percentage Cell Viability” value ([1]; individual repeats, listed as 16, 50 µM) was 76.5%, the cytotoxicity at 50 µM [1, 4] was 33.5% and the viability at 50 µM [1, 5] was 77.5%. The cytotoxicity at 50 µM [1, 6] was 33.4% and the viability at 50 µM [1, 9] was 78.5%.

With `CCCC(=O)N1CCc2c(cc([N+](=O)[O-])cc2-c2ccccc2Cl)C1` [CO-AAW00017, 1-[5-(2-chlorophenyl)-7-nitro-1,2,3,4-tetrahydroisoquinolin-2-yl]butan-1-one] the “Percentage Cell Viability” value ([1]; individual repeats, listed as 17, 50 µM) was 68.4%, the cytotoxicity at 50 µM [1, 4] was 49.2% and the viability at 50 µM [1, 5] was 71.3%. The cytotoxicity at 50 µM [1, 6] was 43% and the viability at 50 µM [1, 9] was 74.2%.

With `CC(C)NC(=O)c1cc2ccccc2c(-c2c(Cl)cccc2Cl)n1` [CO-AAW00018] the “Percentage Cell Viability” value ([1]; individual repeats, listed as 18, 50 µM) was 79.2%, the cytotoxicity at 50 µM [1, 4] was 24.1% and the viability at 50 µM [1, 5] was 82%. It also gave a cytotoxicity at 50 µM [1, 6] of 25.6% and a viability at 50 µM [1, 9] of 84.8%.

For `CNC(=O)c1cc2ccccc2c(-c2ccccc2Cl)n1` [CO-AAW00020], the “Percentage Cell Viability” value ([1]; individual repeats, listed as 20, 50 µM) was 78.7%, the cytotoxicity at 50 µM [1, 4] was 17.3% and the viability at 50 µM [1, 5] was 75.7%. For the same compound, the cytotoxicity at 50 µM [1, 6] was 17.1% and the viability at 50 µM [1, 9] was 72.7%.

`CCCCNC(=O)c1cc2ccccc2c(-c2ccccc2Cl)n1` [CO-AAW00022] was tested, and the “Percentage Cell Viability” value ([1]; individual repeats, listed as 22, 50 µM) was 19.4%, the cytotoxicity at 50 µM [1, 4] was 65.4% and the viability at 50 µM [1, 5] was 28.4%. The cytotoxicity at 50 µM [1, 6] was 62.9% and the viability at 50 µM [1, 9] was 37.4%.

In the case of `CC(C)C(=O)Nc1cc2c(c(-c3ccccc3Cl)c1)CCN(C(=O)c1ccccc1)C2` [CO-AAW00025, N-[2-Benzoyl-5-(2-chloro-phenyl)-1,2,3,4-tetrahydroisoquinolin-7-yl]2-methylpropanamide], the “Percentage Cell Viability” value ([1]; individual repeats, listed as 25, 50 µM) is reported as 56.3% and 78.8%, the cytotoxicity at 50 µM [1, 4] is reported as 15.4% and the viability at 50 µM [1, 5] is reported as 67.6%. The cytotoxicity at 50 µM [1, 6] was 19.7%.

`CCCCC(=O)Nc1cc2c(c(-c3ccccc3Cl)c1)CCN(C(=O)C(F)(F)F)C2` [CO-AAW00030, pentanoic acid [5-(2-chlorophenyl)-2-(2,2,2-trifluoro-acetyl)-1,2,3,4-tetrahydro-isoquinolin-7-yl]amide] showed a cytotoxicity at 50 µM [1, 4] of 61.2%, a viability at 50 µM [1, 5] of 64.3% and a cytotoxicity at 50 µM [1, 6] of 61.2%. The viability at 50 µM [1, 9] was 64.3%.

`CCC(C)N(C)C(=O)c1cc2ccccc2c(-c2ccccc2Cl)n1` (centres unmarked) [PK11195, 1-(2-chlorophenyl)-N-methyl-N-(1-methylpropyl)-3-isoquinolinecarboxamide, reference compound] was tested, and the “disease on splenic assessment on culling” value [3, 8] was “moderate levels of disease” and the “mice alive at 10 weeks” value [3, 7] was “Five of the ten”.
